Results from patent EP0414533A1, “Use of iodopropargyl esters of alpha-amino acid derivatives as antimicrobial agents” (ROHM AND HAAS COMPANY, priority 1989, dated 1991).
Where two headings read alike, the source gives them in different places.

Key:
Assay type in all cases: cell-based
[1] = tested on: ALT; experiment: In-vitro plant fungicide test; details: Table IVb, read-out: % Control at (ppm) indicated ALT
[2] = tested on: Botrytis cinerea (BOC); experiment: In-vitro plant fungicide test; details: Botrytis cinerea
[3] = tested on: CER; experiment: In-vitro plant fungicide test; details: Table IVb, read-out: % Control at (ppm) indicated CER
[4] = tested on: COL; experiment: In-vitro plant fungicide test; details: Table IVb, read-out: % Control at (ppm) indicated COL
[5] = tested on: Fusarium roseum (FUS); experiment: In-vitro plant fungicide test; details: Fusarium sambucinum
[6] = tested on: Cochliobolus sativus (HEL); experiment: In-vitro plant fungicide test; details: Bipolaris sorokiniana
[7] = tested on: MON; experiment: In-vitro plant fungicide test; details: Table IVb, read-out: % Control at (ppm) indicated MON
[8] = tested on: Phytophthora capsici (PHY); experiment: In-vitro plant fungicide test; details: Phytophthora capsici
[9] = tested on: Pythium ultimum (PYU); experiment: In-vitro plant fungicide test; details: Globisporangium ultimum
[10] = tested on: Rhizoctonia solani (RHI); experiment: In-vitro plant fungicide test; details: Rhizoctonia solani
[11] = tested on: UST; experiment: In-vitro plant fungicide test; details: Table IVb, read-out: % Control at (ppm) indicated UST
[12] = tested on: Xanthomonas campestris (XAN); experiment: In-vitro plant fungicide test; set-up: inhibition of growth: concentration or dose not given beside the values; details: Xanthomonas campestris
[13] = tested on: THREE FUNGI; experiment: MIC test against three fungi in Mycophile Broth, pH 5.0, read after 8 days (Table VII); details: 192 h, serial dilutions from 50 ppm, read after 8 days of incubation
[14] = Table IVb, read-out: % Control at (ppm) indicated XAN

CC(C)(C)OC(=O)NCC(=O)OCC#CI [Compound 1, N-t-butoxycarbonylglycine iodopropargyl ester]
1.6 µg/mL: MIC ([13]; Gloeophyllum trabeum, read-out: MIC GTRA)
0%: inhibition of growth at 1.5 ppm ([1]; 1.5 ppm) | inhibition of growth at 0.2 ppm ([1]; .2 ppm) | inhibition of growth at 0.4 ppm ([1]; .4 ppm) | inhibition of growth at 0.8 ppm ([1]; .8 ppm) | inhibition of growth at 1.5 ppm ([2]; 1.5 ppm, Table IVb, read-out: % Control at (ppm) indicated BOC) | inhibition of growth at 6 ppm ([2]; 6 ppm, Table IVb, read-out: % Control at (ppm) indicated BOC) | inhibition of growth at 0.2 ppm ([2]; .2 ppm, Table IVb, read-out: % Control at (ppm) indicated BOC) | inhibition of growth at 0.4 ppm ([2]; .4 ppm, Table IVb, read-out: % Control at (ppm) indicated BOC) | inhibition of growth at 0.8 ppm ([2]; .8 ppm, Table IVb, read-out: % Control at (ppm) indicated BOC) | inhibition of growth at 1.5 ppm ([3]; 1.5 ppm) | inhibition of growth at 0.2 ppm ([3]; .2 ppm) | inhibition of growth at 0.4 ppm ([3]; .4 ppm) | inhibition of growth at 0.8 ppm ([3]; .8 ppm) | inhibition of growth at 1.5 ppm ([4]; 1.5 ppm) | inhibition of growth at 3 ppm ([4]; 3 ppm) | inhibition of growth at 6 ppm ([4]; 6 ppm) | inhibition of growth at 0.2 ppm ([4]; .2 ppm) | inhibition of growth at 0.4 ppm ([4]; .4 ppm) | inhibition of growth at 0.8 ppm ([4]; .8 ppm) | inhibition of growth at 1.5 ppm ([5]; read-out: % Control at (ppm) indicated FUS, 1.5 ppm, Table IVb) | inhibition of growth at 0.2 ppm ([5]; read-out: % Control at (ppm) indicated FUS, .2 ppm, Table IVb) | inhibition of growth at 0.4 ppm ([5]; read-out: % Control at (ppm) indicated FUS, .4 ppm, Table IVb) | inhibition of growth at 0.8 ppm ([5]; read-out: % Control at (ppm) indicated FUS, .8 ppm, Table IVb) | inhibition of growth at 1.5 ppm ([6]; 1.5 ppm, Table IVb, read-out: % Control at (ppm) indicated HEL) | inhibition of growth at 0.2 ppm ([6]; .2 ppm, Table IVb, read-out: % Control at (ppm) indicated HEL) | inhibition of growth at 0.4 ppm ([6]; .4 ppm, Table IVb, read-out: % Control at (ppm) indicated HEL) | inhibition of growth at 0.8 ppm ([6]; .8 ppm, Table IVb, read-out: % Control at (ppm) indicated HEL) | inhibition of growth at 0.2 ppm ([7]; .2 ppm) | inhibition of growth at 0.4 ppm ([7]; .4 ppm) | inhibition of growth at 0.8 ppm ([7]; .8 ppm) | inhibition of growth at 0.2 ppm ([8]; .2 ppm, Table IVb, read-out: % Control at (ppm) indicated PHY) | inhibition of growth at 0.4 ppm ([8]; .4 ppm, Table IVb, read-out: % Control at (ppm) indicated PHY) | inhibition of growth at 0.8 ppm ([8]; .8 ppm, Table IVb, read-out: % Control at (ppm) indicated PHY) | inhibition of growth at 0.2 ppm ([9]; .2 ppm, Table IVb, read-out: % Control at (ppm) indicated PYU) | inhibition of growth at 0.4 ppm ([9]; .4 ppm, Table IVb, read-out: % Control at (ppm) indicated PYU) | inhibition of growth at 0.8 ppm ([9]; .8 ppm, Table IVb, read-out: % Control at (ppm) indicated PYU) | inhibition of growth at 0.2 ppm ([10]; .2 ppm, Table IVb, read-out: % Control at (ppm) indicated RHI) | inhibition of growth at 0.2 ppm ([11]; .2 ppm) | inhibition of growth at 0.4 ppm ([11]; .4 ppm) | inhibition of growth at 1.5 ppm ([12]; 1.5 ppm, Table IVb, read-out: % Control at (ppm) indicated XAN) | inhibition of growth at 3 ppm ([12]; 3 ppm, Table IVb, read-out: % Control at (ppm) indicated XAN) | inhibition of growth at 6 ppm ([12]; 6 ppm, Table IVb, read-out: % Control at (ppm) indicated XAN) | inhibition of growth at 25 ppm ([12]; Table IVa, read-out: % Control at 25 ppm XAN) | inhibition of growth at 25 ppm [12, 14] | inhibition of growth at 0.2 ppm ([12]; .2 ppm, Table IVb, read-out: % Control at (ppm) indicated XAN) | inhibition of growth at 0.4 ppm ([12]; .4 ppm, Table IVb, read-out: % Control at (ppm) indicated XAN) | inhibition of growth at 0.8 ppm ([12]; .8 ppm, Table IVb, read-out: % Control at (ppm) indicated XAN) | inhibition of growth [12, 14]
12.5 µg/mL: MIC ([13]; Aureobasidium pullulans, read-out: MIC APUL)
95%: inhibition of growth at 12 ppm ([4]; 12 ppm) | inhibition of growth at 25 ppm ([4]; 25 ppm)
75%: inhibition of growth at 3 ppm ([5]; read-out: % Control at (ppm) indicated FUS, 3 ppm, Table IVb) | inhibition of growth at 6 ppm ([6]; 6 ppm, Table IVb, read-out: % Control at (ppm) indicated HEL) | inhibition of growth at 1.5 ppm ([7]; 1.5 ppm) | inhibition of growth at 0.4 ppm ([10]; .4 ppm, Table IVb, read-out: % Control at (ppm) indicated RHI)
3.2 µg/mL: MIC ([13]; Aspergillus niger, read-out: MIC ANIG)
100%: inhibition of growth at 12 ppm ([1]; 12 ppm) | inhibition of growth at 25 ppm ([1]; 25 ppm) | inhibition of growth at 25 ppm ([2]; Table IVa, *=Phytotoxic, read-out: % Control at 25 ppm BOC) | inhibition of growth at 25 ppm ([2]; Table IVb, read-out: % Control at (ppm) indicated BOC) | inhibition of growth at 6 ppm ([3]; 6 ppm) | inhibition of growth at 25 ppm ([3]; 25 ppm) | inhibition of growth at 25 ppm ([5]; read-out: % Control at 25 ppm FUS, 25 ppm, Table IVa, *=Phytotoxic) | inhibition of growth at 6 ppm ([5]; read-out: % Control at (ppm) indicated FUS, 6 ppm, Table IVb) | inhibition of growth at 12 ppm ([5]; read-out: % Control at (ppm) indicated FUS, 12 ppm, Table IVb) | inhibition of growth at 25 ppm ([5]; read-out: % Control at (ppm) indicated FUS, 25 ppm, Table IVb) | inhibition of growth at 25 ppm ([6]; Table IVa, *=Phytotoxic, read-out: % Control at 25 ppm HEL) | inhibition of growth at 25 ppm ([6]; Table IVb, read-out: % Control at (ppm) indicated HEL) | inhibition of growth at 6 ppm ([7]; 6 ppm) | inhibition of growth at 25 ppm ([7]; 25 ppm) | inhibition of growth at 6 ppm ([8]; 6 ppm, Table IVb, read-out: % Control at (ppm) indicated PHY) | inhibition of growth at 25 ppm ([8]; Table IVa, read-out: % Control at 25 ppm PHY) | inhibition of growth at 25 ppm ([8]; Table IVb, read-out: % Control at (ppm) indicated PHY) | inhibition of growth at 1.5 ppm ([9]; 1.5 ppm, Table IVb, read-out: % Control at (ppm) indicated PYU) | inhibition of growth at 6 ppm ([9]; 6 ppm, Table IVb, read-out: % Control at (ppm) indicated PYU) | inhibition of growth at 25 ppm ([9]; Table IVa, read-out: % Control at 25 ppm PYU) | inhibition of growth at 25 ppm ([9]; Table IVb, read-out: % Control at (ppm) indicated PYU) | inhibition of growth at 1.5 ppm ([10]; 1.5 ppm, Table IVb, read-out: % Control at (ppm) indicated RHI) | inhibition of growth at 6 ppm ([10]; 6 ppm, Table IVb, read-out: % Control at (ppm) indicated RHI) | inhibition of growth at 25 ppm ([10]; Table IVa, read-out: % Control at 25 ppm RHI) | inhibition of growth at 25 ppm ([10]; Table IVb, read-out: % Control at (ppm) indicated RHI) | inhibition of growth at 0.8 ppm ([10]; .8 ppm, Table IVb, read-out: % Control at (ppm) indicated RHI) | inhibition of growth at 1.5 ppm ([11]; 1.5 ppm) | inhibition of growth at 3 ppm ([11]; 3 ppm) | inhibition of growth at 6 ppm ([11]; 6 ppm) | inhibition of growth at 12 ppm ([11]; 12 ppm) | inhibition of growth at 25 ppm ([11]; 25 ppm)
50%: inhibition of growth at 3 ppm ([1]; 3 ppm) | inhibition of growth at 6 ppm ([1]; 6 ppm) | inhibition of growth at 1.5 ppm ([8]; 1.5 ppm, Table IVb, read-out: % Control at (ppm) indicated PHY) | inhibition of growth at 0.8 ppm ([11]; .8 ppm)
